How the values were obtained:
large crabgrass = test: Test A pre-/postemergence herbicide test; format: in vivo, Digitaria sanguinalis
Method in brief: (§1)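 Both application timings were run together: directed soil spray over freshly planted seeds in sandy loam, and runoff spray onto 2–10 cm seedlings. Evaluation after ~10 days in greenhouse used a 0–100 visual scale versus untreated controls.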

velvetleaf = test: Test A pre-/postemergence herbicide test; format: in vivo, Abutilon theophrasti
Method in brief: as §1

rice = test: Test B pre-/postemergence herbicide test; format: in vivo, Oryza sativa; conditions: preemergence; for Plant response rating, Rice: 500 g ai/ha, visual rating 0-100, 0 no effect, 100 complete control
Method in brief: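 Seeds were planted and treated preemergence with compounds formulated in a non-phytotoxic solvent mixture containing surfactant, while plants at the 1- to 4-leaf stage (2 to 18 cm) received postemergence sprays. Flooded paddy plants were grown to the 2-leaf stage. After 13 to 15 days in a greenhouse, injury was visually rated 0–100 against untreated controls.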

Surinam grass = test: Test C pre-/postemergence herbicide test; format: in vivo, Urochloa decumbens
Method in brief: (§2)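 Emerged plants at the 1- to 4-leaf stage (2–18 cm), or freshly planted seeds, received test chemicals in a non-phytotoxic solvent mixture with surfactant. Response was visually scored against controls after 12 to 14 days in the greenhouse, on a 0 (no effect) to 100 (complete control) scale.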

woolly cupgrass = test: Test C pre-/postemergence herbicide test; format: in vivo, Eriochloa villosa
Method in brief: as §2

goosegrass = test: Test C pre-/postemergence herbicide test; format: in vivo, Eleusine indica
Method in brief: as §2

johnsongrass = test: Test C pre-/postemergence herbicide test; format: in vivo, Sorghum halepense
Method in brief: as §2

eastern black nightshade = test: Test C pre-/postemergence herbicide test; format: in vivo, Solanum ptycanthum
Method in brief: as §2

soybean = test: Test C pre-/postemergence herbicide test; format: in vivo, Glycine max
Method in brief: as §2

[1] = tested on: common (oilseed) sunflower; test: Test C pre-/postemergence herbicide test; format: in vivo, Helianthus annuus
Method in brief: as §2

[2] = Postemergence, 500 g ai/ha, 0 to 100 scale, 0 no effect, 100 complete control
[3] = Postemergence, 2000 g ai/ha, 0 to 100 scale, 0 no effect, 100 complete control
[4] = Preemergence, 2000 g ai/ha, visual rating, 0 to 100 scale (0 no effect, 100 complete control)
[5] = preemergence, 500 g ai/ha, visual injury, 0 to 100 scale (0 no effect, 100 complete control)
[6] = 62 g ai/ha, preemergence, scale 0 to 100
[7] = 125 g ai/ha, scale 0 (no effect) to 100 (complete control), visual, 12 to 14 days, preemergence
[8] = 250 g ai/ha, scale 0-100, preemergence
[9] = 500 g ai/ha, scale 0 to 100 (0 no effect, 100 complete control), visual, 12 to 14 days, preemergence
[10] = Postemergence, 500 g ai/ha, scale 0 to 100
[11] = Postemergence, 250 g ai/ha, scale 0 to 100, 0 no effect, 100 complete control
[12] = Preemergence, 500 g ai/ha, scale 0 to 100, 0 no effect, 100 complete control
[13] = postemergence, 125 g ai/ha, scale 0 to 100

CCNC(=O)c1cccc(NC(=O)c2sc(C(C)(C)C)nc2CC)c1 [Compound 210]
Crabgrass, Large plant response rating (large crabgrass; [2]): 40
Plant response rating, Crabgrass, Large (large crabgrass; [3]): 65
Crabgrass, Large plant response rating (large crabgrass; [4]): 100
Crabgrass, Large plant response rating (large crabgrass; [5]): 90
Velvetleaf plant response rating (velvetleaf; [2]): 40
Plant response rating, Velvetleaf (velvetleaf; [3]): 65
Velvetleaf plant response rating (velvetleaf; [4]): 95
Velvetleaf plant response rating (velvetleaf; [5]): 70
Rice plant response rating (0 to 100 scale) (rice; 125 g ai/ha, 0 = no effect, 100 = complete control): 60
Plant response rating, Rice (rice): 80
Plant response rating, Surinam Grass (Surinam grass; [6]): 0
Plant response rating, Surinam Grass (Surinam grass; [7]): 5
Plant response rating, Surinam Grass (Surinam grass; [8]): 10
Plant response rating, Surinam Grass (Surinam grass; [9]): 50
Plant response rating, Cupgrass, Woolly (woolly cupgrass; [6]): 0
Plant response rating, Cupgrass, Woolly (woolly cupgrass; [7]): 0
Plant response rating, Cupgrass, Woolly (woolly cupgrass; [8]): 5
Plant response rating, Cupgrass, Woolly (woolly cupgrass; [9]): 10
Plant response rating, Goosegrass (goosegrass; [6]): 50
Plant response rating, Goosegrass (goosegrass; [7]): 80
Plant response rating, Goosegrass (goosegrass; [8]): 95
Plant response rating, Goosegrass (goosegrass; [9]): 95
Plant response rating, Johnsongrass (johnsongrass; [6]): 5
Plant response rating, Johnsongrass (johnsongrass; [7]): 20
Plant response rating, Johnsongrass (johnsongrass; [8]): 50
Plant response rating, Johnsongrass (johnsongrass; [9]): 70
Plant response rating, Nightshade (eastern black nightshade; [6]): 80
Plant response rating, Nightshade (eastern black nightshade; [7]): 100
Plant response rating, Nightshade (eastern black nightshade; [8]): 100
Plant response rating, Nightshade (eastern black nightshade; [9]): 100
Plant response rating, Soybean (soybean; [6]): 0
Plant response rating, Soybean (soybean; [7]): 0
Plant response rating, Soybean (soybean; [8]): 0
Plant response rating, Soybean (soybean; [9]): 0
Plant response rating, Sunflower [1, 6]: 0
Plant response rating, Sunflower [1, 7]: 0
Plant response rating, Sunflower [1, 8]: 0
Plant response rating, Sunflower [1, 9]: 0

CCn1nc(C(C)(C)C)cc1C(=O)Nc1cccc(SC(F)(F)F)c1 [Compound 130]
Crabgrass, Large plant response rating (large crabgrass; [2]): 20
Plant response rating, Crabgrass, Large (large crabgrass; [3]): 20
Crabgrass, Large plant response rating (large crabgrass; Preemergence, 500 g ai/ha, visual rating, 0 to 100 scale (0 no effect, 100 complete control)): 45
Crabgrass, Large plant response rating (large crabgrass; [4]): 60
Velvetleaf plant response rating (velvetleaf; [2]): 20
Plant response rating, Velvetleaf (velvetleaf; [3]): 20
Velvetleaf plant response rating (velvetleaf; [4]): 30
Velvetleaf plant response rating (velvetleaf; [5]): 20
Plant response rating, Rice (rice): 0
Plant response rating (0 = no effect, 100 = complete control), Surinam Grass (Surinam grass; 62 g ai/ha, preemergence): 5
Plant response rating, Surinam Grass (Surinam grass; [7]): 5
Surinam Grass plant response rating (Surinam grass; [10]): 60
Plant response rating, Surinam Grass (Surinam grass; [11]): 30
Surinam Grass plant response rating (Surinam grass; [12]): 60
Plant response rating, Surinam Grass (Surinam grass; [13]): 10
Plant response rating (0 = no effect, 100 = complete control), Cupgrass, Woolly (woolly cupgrass; 62 g ai/ha, preemergence): 5
Plant response rating, Cupgrass, Woolly (woolly cupgrass; [7]): 10
Plant response rating, Cupgrass, Woolly (woolly cupgrass; 250 g ai/ha, scale 0 to 100 (0 no effect, 100 complete control), visual, 12 to 14 days, preemergence): 40
Cupgrass, Woolly plant response rating (woolly cupgrass; [10]): 80
Plant response rating, Cupgrass, Woolly (woolly cupgrass; [11]): 60
Cupgrass, Woolly plant response rating (woolly cupgrass; [12]): 70
Plant response rating, Cupgrass, Woolly (woolly cupgrass; [13]): 50
Plant response rating (0 = no effect, 100 = complete control), Goosegrass (goosegrass; 62 g ai/ha, preemergence): 10
Plant response rating, Goosegrass (goosegrass; [7]): 20
Goosegrass plant response rating (goosegrass; [10]): 60
Plant response rating, Goosegrass (goosegrass; [11]): 60
Goosegrass plant response rating (goosegrass; [12]): 50
Plant response rating, Goosegrass (goosegrass; [13]): 20
Johnsongrass plant response rating (johnsongrass; [10]): 40
Plant response rating, Johnsongrass (johnsongrass; [11]): 30
Johnsongrass plant response rating (johnsongrass; [12]): 80
Plant response rating, Johnsongrass (johnsongrass; [13]): 10
Plant response rating (0 = no effect, 100 = complete control), Nightshade (eastern black nightshade; 62 g ai/ha, preemergence): 30
Nightshade plant response rating (eastern black nightshade; [12]): 60
Plant response rating (0 = no effect, 100 = complete control), Soybean (soybean; 62 g ai/ha, preemergence): 0
Plant response rating, Soybean (soybean; [7]): 0
Soybean plant response rating (soybean; [10]): 70
Plant response rating, Soybean (soybean; [11]): 40
Soybean plant response rating (soybean; [12]): 10
Plant response rating, Soybean (soybean; [13]): 40
Plant response rating (0 = no effect, 100 = complete control), Sunflower ([1]; 62 g ai/ha, preemergence): 0
Plant response rating, Sunflower [1, 7]: 0
Sunflower plant response rating [1, 12]: 0

— US20060069132A1, “Azolecarboxamide herbicides” (priority 2004, published 2006)
